Experimental data from patent publication US20040176422A1, “Heteroarylheteroalkylamine derivatives and their use as inhibitors of nitric oxide synthase” (priority 2001, published 2004).
Counter-ions that a name gives are not always drawn.

Row | SMILES | melting point [°C]
1 | Cc1ccc(C#N)c(S[C@H](CCN)c2cc(Cl)no2)n1.O=C(O)/C=C/C(=O)O [Example 19, 2-[[(1R)-3-Amino-1-(3-chloro-5-isoxazolyl)propyl]thio]-6-methyl-3-pyridinecarbonitrile (E)-butenedioate] | 186 to 187
2 | Cc1ccc(C#N)c(SC(CCN)c2nocc2C)n1.O=C(O)C(=O)O (stereo not drawn) [Example 26, 2-[[3-Amino-1-(4-methyl-3-isoxazolyl)propyl]thio]-6-methyl-3-pyridinecarbonitrile Ethanedioate] | 132 to 134
3 | N#Cc1ccc(C(F)(F)F)nc1O[C@H](CCN)c1cc(Cl)no1.O=C(O)/C=C/C(=O)O [Example 18, 2-[[(1R)-3-Amino-1-(3-chloro-5-isoxazolyl)propyl]oxy]-6-(trifluoromethyl)-3-pyridinecarbonitrile (E)-butenedioate] | 151 to 152
4 | COc1cc(O[C@H](CCN)c2ccon2)c(C#N)cn1.O=C(O)C(=O)O [Example 25, 4-[[(1R)-3-Amino-1-(3-isoxazolyl)propyl]oxy]-6-methoxy-3-pyridinecarbonitrile Ethanedioate] | 173 to 174
5 | N#Cc1cnc(N)cc1S[C@H](CCN)c1ccno1.O=C(O)/C=C/C(=O)O [Example 14, 6-Amino-4-[[(1R)-3-amino-1-(5-isoxazolyl)propyl]thio]-3-pyridinecarbonitrile (E)-butenedioate] | 160 to 163
6 | Cc1cc([C@@H](CCN)Oc2nc(C(F)(F)F)ccc2C#N)no1 [Example 24, 2-[[(1R)-3-Amino-1-(5-methyl-3-isoxazolyl)propyl]oxy]-6-(trifluoromethyl)-3-peridinecarbonitrile Ethanedioate] | 163 to 165
7 | Cc1cc(SC(CCN)c2scnc2Cl)c(C#N)cn1.O=C(O)/C=C/C(=O)O (stereo not drawn) [Example 28, 4-[[3-Amino-1-(4-chloro-5-thiazolyl)propyl]thio]-6-methyl-3-pyridinecarbonitrile (E)-butenedioate] | 180 to 181
8 | COc1cc(S[C@H](CCN)c2ccno2)c(C#N)cn1.O=C(O)/C=C/C(=O)O [Example 16, 4-[[(1R)-3-Amino-1-(5-isoxazolyl)propyl]thio]-6-methoxy-3-pyridinecarbonitrile (E)-butenedioate] | 152 to 153
9 | Cc1ccc(C#N)c(SC(CCN)c2ccns2)n1.O=C(O)C(=O)O (stereo not drawn) [Example 21, 2-[[3-Amino-1-(5-isothiazolyl)propyl]thio]-6-methyl-3-pyridinecarbonitrile Ethanedioate] | 103 to 104
10 | Cc1ccc(C#N)c(OC(CCN)c2ccns2)n1.O=C(O)C(=O)O (stereo not drawn) [Example 22, 2-[3-Amino-1-(5-isothiazolyl)propoxy]-6-methyl-3-pyridinecarbonitrile Ethanedioate] | 175 to 177
11 | N#Cc1ccc(C(F)(F)F)nc1O[C@H](CCN)c1ccon1.O=C(O)/C=C/C(=O)O [Example 11, 2-[[(1R)-3-Amino-1-(3-isoxazolyl)propyl]oxy]-6-(trifluoromethyl)-3-pyridinecarbonitrile (E)-butenedioate] | 160 to 161
12 | N#Cc1ccc(C(F)(F)F)nc1OC(CCCN)c1ccno1.O=C(O)/C=C/C(=O)O (stereo not drawn) [Example 42, 2-[4-Amino-1-(5-isoxazolyl)butoxy]-6-(trifluoromethyl)-3-pyridinecarbonitrile (E)-butenedioate] | 155 to 157
13 | COc1cc(S[C@H](CCN)c2ccno2)c(Cl)cn1 (as salt: salt) [Example 15, γ-[(5-Chloro-2-methoxy-4-pyridinyl)thio]-(γ^5R)-5-isoxazolepropanamine (E)-butenedioate] | 142 to 143
14 | Cc1ccc(C#N)c(S[C@H](CCN)c2ccno2)n1 [Example 6, 2-[[(1R)-3-Amino-1-(5-isoxazolyl)propyl]thio-6-methyl-3-pyridinecarbonitrile Ethanedioate] | 165 to 167
15 | Cl.N#Cc1ccc(C(F)(F)F)nc1O[C@H](CCN)c1nccs1 [Example 12, 2-[[(1R)-3-Amino-1-(2-thiazolyl)propyl]oxy]-6-(trifluoromethyl)-3-pyridinecarbonitrile Hydrochloride] | 151 to 153
